Reference: patent CN113143900A, “Ml365在制备预防和/或治疗nlrp3炎症小体相关疾病的药物中的应用” (Southern Medical University, priority 2021, dated 2021)
“Also recorded” adds a separate entry of the source.

Key:
TNF-α = TNF-α in supernatants of LPS + ATP treated BMDM, ELISA; format: cell-based, mouse; conditions: same supernatants
[1] = tested on: NLRC4 inflammasome [NLRC4炎症小体]; assay: NLRC4 inflammasome activation (Pam3CSK4 + Flagellin), IL-1β ELISA; format: cell-based, mouse; conditions: ML365 5 μM (Fig. 9)
[2] = tested on: AIM2 inflammasome [AIM2炎症小体]; assay: AIM2 inflammasome activation (LPS + poly(dA:dT)), IL-1β ELISA; format: cell-based, mouse; conditions: ML365 5 μM (Fig. 9)
[3] = tested on: NLRP3 inflammasome [NLRP3炎症小体]; assay: ATP-induced IL-1β release from LPS-primed BMDM, ELISA; format: cell-based, mouse
[4] = biological target: T1, human TWIK1 channel, functional mutant muTWIK1 I293/294A/K274E [人源TWIK1-I293/294A/K274E, muTWIK1] (Homo sapiens, UniProt O00180, I293A/I294A/K274E); assay: Whole-cell patch clamp of transfected COS-7 cells, TWIK1 (muTWIK1) current; format: cell-based
T1 construct: GFP (green fluorescent protein label of the plasmid); expressed in transfected cells; host or cells: COS-7
T1 sequence (O00180 1-336 K274E/I293A/I294A): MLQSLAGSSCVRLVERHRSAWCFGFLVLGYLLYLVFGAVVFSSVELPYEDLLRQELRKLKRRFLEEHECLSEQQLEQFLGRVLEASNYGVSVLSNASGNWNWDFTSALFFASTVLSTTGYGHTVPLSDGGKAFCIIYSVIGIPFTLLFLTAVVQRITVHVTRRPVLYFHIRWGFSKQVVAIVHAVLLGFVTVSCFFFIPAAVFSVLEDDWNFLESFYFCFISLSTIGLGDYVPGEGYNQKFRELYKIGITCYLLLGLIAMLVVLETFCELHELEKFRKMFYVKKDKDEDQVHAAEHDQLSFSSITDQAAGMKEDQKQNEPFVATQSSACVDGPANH

[5] = tested on: NLRP3 inflammasome [NLRP3炎症小体]; assay: Nigericin-induced NLRP3 inflammasome activation in LPS-primed BMDM (WB, ELISA); format: cell-based, mouse
[6] = biological target: T2, human THIK1 channel [人源THIK1, THIK1通道] (Homo sapiens, UniProt Q9HB14); assay: Whole-cell patch clamp of transfected COS-7 cells, THIK1 current; format: cell-based
T2 construct: GFP (green fluorescent protein label of the plasmid); expressed in transfected cells; host or cells: COS-7
T2 sequence (Q9HB14 1-408): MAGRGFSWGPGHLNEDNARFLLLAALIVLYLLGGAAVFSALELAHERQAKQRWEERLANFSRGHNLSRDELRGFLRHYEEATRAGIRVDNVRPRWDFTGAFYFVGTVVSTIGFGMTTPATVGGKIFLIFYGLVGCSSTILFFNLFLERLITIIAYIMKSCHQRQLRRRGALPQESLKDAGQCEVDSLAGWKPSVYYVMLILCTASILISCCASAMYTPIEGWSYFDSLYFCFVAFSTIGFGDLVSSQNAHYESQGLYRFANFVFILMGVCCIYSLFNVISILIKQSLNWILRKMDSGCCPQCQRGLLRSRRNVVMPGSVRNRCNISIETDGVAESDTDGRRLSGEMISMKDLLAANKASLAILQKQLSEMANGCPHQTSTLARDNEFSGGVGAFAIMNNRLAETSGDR

[7] = biological target: T3, human TWIK2 channel, functional mutant muTWIK2 Y308A/I289A/L290A [人源TWIK2-Y308A/I289A/L290A, muTWIK2] (Homo sapiens, UniProt Q9Y257, I289A/L290A/Y308A); assay: Whole-cell patch clamp of transfected COS-7 cells, TWIK2 (muTWIK2) current; format: cell-based
T3 construct: GFP (green fluorescent protein label of the plasmid); expressed in transfected cells; host or cells: COS-7
T3 sequence (Q9Y257 1-313 I289A/L290A/Y308A): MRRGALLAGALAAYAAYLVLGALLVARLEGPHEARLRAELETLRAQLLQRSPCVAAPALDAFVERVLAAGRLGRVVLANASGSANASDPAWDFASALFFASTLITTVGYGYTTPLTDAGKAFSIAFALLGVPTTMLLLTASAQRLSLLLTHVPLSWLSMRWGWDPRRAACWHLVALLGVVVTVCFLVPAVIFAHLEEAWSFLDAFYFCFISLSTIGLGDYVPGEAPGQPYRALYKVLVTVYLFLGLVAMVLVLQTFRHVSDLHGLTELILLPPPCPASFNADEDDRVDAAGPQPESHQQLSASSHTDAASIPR

[8] = tested on: NLRP3 inflammasome [NLRP3炎症小体]; assay: ATP- or Nigericin-induced NLRP3 inflammasome activation in human THP-1 macrophages; format: cell-based
[9] = tested on: NLRP3 inflammasome [NLRP3炎症小体]; assay: ATP-induced NLRP3 inflammasome activation in BMDM after siRNA knockdown of TWIK2 (WB, ELISA); format: cell-based, mouse; conditions: ML365 5 μM (Fig. 11), TWIK2 siRNA 50 nM 48 h, LPS + ATP
[10] = tested on: NLRP3 inflammasome [NLRP3炎症小体]; assay: ATP-induced NLRP3 inflammasome activation in LPS-primed BMDM, Western blot (WB); format: cell-based, mouse
[11] = tested on: non-canonical inflammasome [非经典炎症小体]; assay: Non-canonical inflammasome activation (Pam3CSK4 + transfected LPS), IL-1β ELISA; format: cell-based, mouse; conditions: ML365 5 μM (Fig. 9)
[12] = tested on: NLRP3 inflammasome [NLRP3炎症小体]; conditions: mouse BMDM; pharmacological inhibition (or knockout) of TWIK2; Di et al. 2018; cited from earlier work

Compound: COc1ccccc1C(=O)Nc1cccc(NC(=O)c2cccc(C)c2)c1 [ML365, 2-甲氧基-N-[3-[(3-甲基苯甲酰基)氨基]苯基]苯甲酰胺]
- TNF-α expression (in words) (TNF-α): 几乎无影响
- effect on NLRC4 inflammasome activation / induced IL-1β production (in words) [1]: 不抑制 and 无影响
- effect on AIM2 inflammasome activation / induced IL-1β production (in words) [2]: 不抑制 and 无影响
- IL-1β release (in words) [3]: 显著降低
- inhibition of muTWIK1 channel (in words) ([4]; 10 μM): 没有抑制作用
- inhibition of muTWIK1 channel (in words) ([4]; 20 μM): 也无抑制作用
- effect on TWIK1 channel function (in words) ([4]; concentration not stated): 不影响
- effect on Nigericin-induced NLRP3 inflammasome activation (in words) ([5]; BMDM, even at 10 and 20 μM, Nigericin 10 μM 30 min): 没有影响
- effect on Nigericin-induced NLRP3 inflammasome activation (in words) ([5]; concentration not stated): 无影响
- inhibition of THIK1 channel (in words) ([6]; 10 μM): 几乎无抑制作用
- inhibition of THIK1 channel (in words) ([6]; 20 μM): 也无抑制作用
- effect on THIK1 channel function (in words) ([6]; concentration not stated): 不影响
- inhibition of TWIK2 channel (in words) ([7]; 10 μM in Fig. 3, muTWIK2 in COS-7 cells): 特异性强效抑制剂; also recorded: 强效抑制剂; also recorded: 较强的抑制作用
- I/I0 (inhibition of TWIK2 channel) ([7]; ML365 10 μM, muTWIK2 in COS-7 cells): 0.35±0.02
- activity at 10 µM ([7]; ML365 10 μM, muTWIK2 in COS-7 cells, read-out: I/I0 (inhibition of TWIK2 channel)): 35 ± 2%
- selectivity for TWIK2 channel (in words) ([7]; compared with TWIK1 and THIK1): 特异性选择抑制剂; also recorded: 强效选择性抑制剂; also recorded: 选择性抑制剂
- IC50 ([7]; inhibition of TWIK2 channel, dose-response curve on muTWIK2, COS-7 cells): 4.07 µM
- effect on ATP-induced NLRP3 inflammasome activation (in words) ([8]; ATP): 也在人THP-1巨噬细胞中得到证实 and 抑制
- effect on Nigericin-induced NLRP3 inflammasome activation (in words) ([8]; Nigericin): 也在人THP-1巨噬细胞中得到证实 and 无影响
- inhibition of ATP-induced NLRP3 inflammasome activation by ML365 after TWIK2 knockdown (in words) [9]: 可阻断 and 极大减弱 and 显著下降 and 可消除
- effect on ATP-induced NLRP3 inflammasome activation (in words) ([10]; LPS 5 μg/mL overnight, compound 2 h, ATP 5 mM 1 h): 阻断 and 剂量依赖性地抑制 and 可以特异性抑制 and 可特异性地抑制 and 可特异性抑制
- expression level of caspase-1 in cell supernatant (in words) ([10]; WB, LPS + ATP): 有所降低
- expression level of mature IL-1β in cell supernatant (in words) ([10]; WB, LPS + ATP): 有所降低
- effect on non-canonical inflammasome activation (in words) [11]: 不抑制 and 无影响

Compound: C=C[C@H]1CN2CC[C@H]1C[C@H]2[C@H](O)c1ccnc2ccc(OC)cc12 [奎宁]
- ASC oligomerisation (in words) [12]: 抑制caspase-1的激活、ATP诱发的IL-1β的释放以及凋亡相关斑点形成蛋白ASC的寡聚化
- ATP-evoked IL-1β release (in words) [12]: 抑制caspase-1的激活、ATP诱发的IL-1β的释放
- caspase-1 activation (in words) [12]: 抑制caspase-1的激活
- effect on NLRP3 inflammasome activation (in words) [12]: 可以抑制BMDM细胞中NLRP3炎症小体的激活
